We go through 25 compounds from US20190375708A1 (VenatoRx Pharmaceuticals, Inc., priority 2018, published 2019).

Structures are written as SMILES.

Data set [1] relates to HBV replication in HepAD38 cells. Put plainly: Anti-HBV replication assay in HepAD38 cells (QPCR of extracellular HBV DNA). Type of data set: cell-based, HBV (genotype D, serotype ayw). The following applies: Hepatitis B virus, 168 h, 7 days incubation, extracellular HBV DNA by QPCR, read-out: Anti-HBV EC50. An outline of the steps:
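HepAD38 cells (HepG2 carrying a tet-repressible HBV genotype D genome) were seeded in tetracycline-free medium and treated next day with compound […] for 7 days. Supernatant HBV DNA was measured by QPCR against a standard curve; EC50 came from 4-parameter fits of inhibition versus DMSO control.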

The nature of data set [2]: In vitro cytotoxicity assay (MTT cell viability) in HepG2 cells. Type of data set: cell-based, human. The following applies: human. An outline of the steps: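 HepG2 seeded overnight, then 7-day compound exposure (30 μM–1.0 nM, half-log steps), 37 °C. MTT 3-4 h, DMSO solubilization, A492. % of vehicle → CC50, 4-PL fit.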

For the compound `Cc1cc(NC(=O)c2c(C)c(C(=O)C(=O)N[C@@H]3CCOC[C@H]3O)n(CCF)c2C)ccc1F` [Example 196, N-(4-fluoro-3-methylphenyl)-1-(2-fluoroethyl)-5-(2-(((3S,4R)-3-hydroxytetrahydro-2H-pyran-4-yl)amino)-2-oxoacetyl)-2,4-dimethyl-1H-pyrrole-3-carboxamide], the EC50 (commonly the concentration at which the effect is half-maximal) in data set [1] was in the range of 50 to 499 nM. Further, the CC50 – broadly, the concentration that lowers cell viability or growth by half – at 7 days in data set [2] is above 30000 nM.

In the case of `Cc1c(C(=O)Nc2ccc(F)c(F)c2)c2n(c1C(=O)C(=O)NCC(C)(C)O)CCCC2` [Example 462, N-(3,4-difluorophenyl)-3-(2-((2-hydroxy-2-methylpropyl)amino)-2-oxoacetyl)-2-methyl-5,6,7,8-tetrahydroindolizine--1 carboxamide], the half-maximal effective concentration (EC50) in data set [1] was 50 to 499 nM. The CC50 at 7 days in data set [2] is above 30000 nM.

For the compound `Cc1c(C(=O)Nc2cc(F)c(F)c(F)c2)c(Cl)c(C(=O)C(=O)NC(C)(C)CO)n1C` [Example 373, 4-chloro-5-(2-((1-hydroxy-2-methylpropan-2-yl)amino)-2-oxoacetyl)-1,2-dimethyl-N-(3,4,5-trifluorophenyl)-1H-pyrrole-3-carboxamide], the EC50 in data set [1] is below 50 nM. The compound further came in with a CC50 at 7 days in data set [2] of 500 to 4990 nM.

For the compound `Cc1cc(NC(=O)c2c(C)c(C(=O)C(=O)Nc3ccc(C(F)(F)F)nc3)n(C)c2C)ccc1F` [Example 264, N-(4-fluoro-3-methylphenyl)-1,2,4-trimethyl-5-(2-oxo-2-((6-(trifluoromethyl)pyridin-3-yl)amino)acetyl)-1H-pyrrole-3-carboxamide], the EC50 in data set [1] was below 50 nM. The compound further yielded a CC50 at 7 days in data set [2] of 5000 to 30000 nM.

Consider `Cc1cc(NC(=O)c2c(C)c(C(=O)C(=O)N[C@@H](C(N)=O)C(C)C)n(C)c2C)ccc1F` [Example 105, (R)-5-(2-((1-amino-3-methyl-1-oxobutan-2-yl)amino)-2-oxoacetyl)-N-(4-fluoro-3-methylphenyl)-1,2,4-trimethyl-1H-pyrrole-3-carboxamide], for which the EC50 in data set [1] is below 50 nM. The CC50 at 7 days in data set [2] lay within 5000 to 30000 nM.

Take `Nc1ncc(CNC(=O)C(=O)c2c(Cl)c(C(=O)Nc3ccc(F)c(F)c3)c3n2CCC3)s1` [Example 569, 5-(2-(((2-aminothiazol-5-yl)methyl)amino)-2-oxoacetyl)-6-chloro-N-(3,4-difluorophenyl)-2,3-dihydro-1H-pyrrolizine-7-carboxamide]: the EC50 in data set [1] was below 50 nM. In data set [2], the CC50 at 7 days was above 30000 nM.

Consider `Cc1cc(NC(=O)c2c(C)c(C(=O)C(=O)N[C@H](C)C(C)(C)C)n(C)c2C)ccc1F` [Example 63, (R)-5-(2-((3,3-dimethylbutan-2-yl)amino)-2-oxoacetyl)-N-(4-fluoro-3-methylphenyl)-1,2,4-trimethyl-1H-pyrrole-3-carboxamide], for which, in data set [1], the EC50 was below 50 nM. The compound further showed a CC50 at 7 days in data set [2] above 30000 nM.

On to `CC(=O)N1CC[C@H](NC(=O)C(=O)c2c(C)c(C(=O)Nc3ccc(F)c(C)c3)c(C)n2C)C1` [Example 666, (S)-5-(2-((1-acetylpyrrolidin-3-yl)amino)-2-oxoacetyl)-N-(4-fluoro-3-methylphenyl)-1,2,4-trimethyl-1H-pyrrole-3-carboxamide], for which the EC50 in data set [1] was below 50 nM. In addition, in data set [2], the CC50 at 7 days is above 30000 nM.

In the case of `Cc1cc(NC(=O)c2c(C)c(C(=O)C(=O)Nc3ccc(B(O)O)cc3)n(C)c2C)ccc1F` [Example 255, (4-(2-(4-((4-fluoro-3-methylphenyl)carbamoyl)-1,3,5-trimethyl-1H-pyrrol-2-yl)-2-oxoacetamido)phenyl)boronic acid], the EC50 in data set [1] is below 50 nM. In addition, the CC50 at 7 days in data set [2] was in the range of 5000 to 30000 nM.

On to `Cc1c(C(=O)Nc2ccc(F)nc2)c(C)n(C)c1C(=O)C(=O)N[C@]1(C)CC[C@H](O)CC1` [Example 240, N-(6-fluoropyridin-3-yl)-5-(2-(((1s,4s)-4-hydroxy-1-methylcyclohexyl)amino)-2-oxoacetyl)-1,2,4-trimethyl-1H-pyrrole-3-carboxmaide], for which the concentration giving a half-maximal response (EC50) in data set [1] was 50 to 499 nM. Further, the CC50 at 7 days in data set [2] was above 30000 nM.

`Cc1c(C(=O)Nc2ccc(F)c(C#N)c2)c2n(c1C(=O)C(=O)NC(C)(C)C)CCCC2` [Example 435, 3-(2-(tert-butylamino)-2-oxoacetyl)-N-(3-cyano-4-fluorophenyl)-2-methyl-5,6,7,8-tetrahydroindolizine-1-carboxamide]: in data set [1], the EC50 was above 1000 nM. The compound further returned a CC50 at 7 days in data set [2] of 5000 to 30000 nM.

On to `Cc1cc(NC(=O)c2cc(C(=O)C(=O)NCC(C)(C)O)n3c2CCCC3)ccc1F` [Example 419, N-(4-fluoro-3-methylphenyl)-3-(2-((2-hydroxy-2-methylpropyl)amino)-2-oxoacetyl)-5,6,7,8-tetrahydroindolizine-1-carboxamide], for which, in data set [1], the EC50 was above 1000 nM. Moreover, the CC50 at 7 days in data set [2] was above 30000 nM.

Regarding `Cc1c(C(=O)Nc2ccc(F)c(Cl)c2)c(C)n(C)c1C(=O)C(=O)Nc1cccnc1` [Example 311, N-(3-chloro-4-fluorophenyl)-1,2,4-trimethyl-5-(22-oxo-2-(pyridin-3-ylamino)acetyl)-1H-pyrrole-3-carboxamide], in data set [1], the EC50 is below 50 nM. Further, in data set [2], the CC50 at 7 days was above 30000 nM.

In the case of `O=C(NC1(CO)CCC1)C(=O)c1c(Cl)c(C(=O)Nc2ccc(F)c(F)c2)c2n1CCC2` [Example 558, 6-chloro-N-(3,4-difluorophenyl)-5-(2-((1-(hydroxymethyl)cyclobutyl)amino)-2-oxoacetyl)-2,3-dihydro-1H-pyrrolizine-7-carboxamide], in data set [1], the EC50 was below 50 nM. This compound showed a half-maximal cytotoxic concentration (CC50) at 7 days in data set [2] above 30000 nM.

Turning to `Cc1noc(C2(NC(=O)C(=O)c3c(C)c(C(=O)Nc4ccc(F)c(C)c4)c(C)n3CCF)CC2)n1` [Example 203, N-(4-fluoro-3-methylphenyl)-1-(2-fluoroethyl)-2,4-dimethyl-5-(2-((1-(3-methyl-1,2,4-oxadiazol-5-yl)cyclopropyl)amino)-2-oxoacetyl)-1H-pyrrole-3-carboxamide], in data set [1], the EC50 was below 50 nM. The CC50 at 7 days in data set [2] was above 30000 nM.

In the case of `Cc1cc(NC(=O)c2c(C)c(C(=O)C(=O)NC3(C)CCN(C(=O)c4cn(C)nc4C(F)F)CC3)n(C)c2C)ccc1F` [Example 708, 5-(2-((1-(3-(difluoromethyl)-1-methyl-1H-pyrazole-4-carbonyl)-4-methylpiperidin-4-yl)amino)-2-oxoacetyl)-N-(4-fluoro-3-methylphenyl)-1,2,4-trimethyl-1H-pyrrole-3-carboxamide], the EC50 in data set [1] was below 50 nM. Also, the CC50 at 7 days in data set [2] was above 30000 nM.

Consider `Cc1cc(NC(=O)c2c(C)c(C(=O)C(=O)N[C@H]3c4ccccc4C[C@@H]3O)n(C)c2C)ccc1F` [Example 259, N-(4-fluoro-3-methylphenyl)-5-(2-(((1S,2S)-2-hydroxy-2,3-dihydro-1H-inden-1-yl)amino)-2-oxoacetyl)-1,2,4-trimethyl-1H-pyrrole-3-carboxamide], for which the EC50 in data set [1] was below 50 nM. Moreover, the CC50 at 7 days in data set [2] is above 30000 nM.

For the compound `Cc1c(C(=O)Nc2nccs2)c2n(c1C(=O)C(=O)NC1(CO)CCC1)CCCC2` [Example 751], in data set [1], the EC50 is 50 to 499 nM. In addition, the CC50 at 7 days in data set [2] is above 30000 nM.

As to `Cc1c(C(=O)Nc2ccc(F)c(Cl)c2)c(C)n(C)c1C(=O)C(=O)N[C@]1(C)CC[C@@H](O)CC1` [Example 333, N-(3-chloro-4-fluorophenyl)-5-(2-(((1r,4r)-4-hydroxy-1-methylcyclohexyl)amino)-2-oxoacetyl)-1,2,4-trimethyl-1H-pyrrole-3-carboxamide], the EC50 in data set [1] is below 50 nM. The compound further registered a CC50 at 7 days in data set [2] above 30000 nM.

For the compound `Cc1c(C(=O)Nc2ccc(F)nc2)c(C)n(C)c1C(=O)C(=O)NC(C)(C)CN1CCOCC1` [Example 350, N-(6-fluoropyridin-3-yl)-1,2,4-trimethyl-5-(2-((2-methyl-1-morpholinopropan-2-yl)amino)-2-oxoacetyl)-1H-pyrrole-3-carboxamide], the EC50 in data set [1] was 500 to 1000 nM. The compound also had a cytotoxic concentration (CC50) at 7 days in data set [2] above 30000 nM.

Take `Cc1noc([C@H](C)NC(=O)C(=O)c2c(Cl)c(C(=O)Nc3ccc(F)c(F)c3)c3n2CCCC3)n1` [Example 516, (S)-2-chloro-N-(3,4-difluorophenyl)-3-(2-((1-(3-methyl-1,2,4-oxadiazol-5-yl)ethyl)amino)-2-oxoacetyl)-5,6,7,8-tetrahydroindolizine--1 carboxamide]: the EC50 in data set [1] was 50 to 499 nM. In data set [2], this compound registered a cytotoxic concentration (CC50) at 7 days above 30000 nM.

As to `Cc1cc(NC(=O)c2c(C)c(C(=O)C(=O)NCCN3CCOCC3)n(C)c2C)ccc1F` [Example 270, N-(4-fluoro-3-methylphenyl)-1,2,4-trimethyl-5-(2-((2-morpholinoethyl)amino)-2-oxoacetyl)-1H-pyrrole-3-carboxamide], the EC50 in data set [1] was below 50 nM. The compound further showed a CC50 at 7 days in data set [2] above 30000 nM.

With `Cc1c(C(=O)Nc2cc(F)c(F)c(F)c2)c(Cl)c(C(=O)C(=O)N[C@@H]2CCC[C@@H]2O)n1C` [Example 374, 4-chloro-5-(2-(((1R,2S)-2-hydroxycyclopentyl)amino)-2-oxoacetyl)-1,2-dimethyl-N-(3,4,5-trifluorophenyl)-1H-pyrrole-3-carboxamide], the EC50 in data set [1] is below 50 nM. Besides, the CC50 at 7 days in data set [2] lay within 500 to 4990 nM.

With `Cc1nnc(C(C)NC(=O)C(=O)c2c(C)c(C(=O)Nc3ccc(F)c(C)c3)c(C)n2C)o1` (centres unmarked) [Example 181, N-(4-fluoro-3-methylphenyl)-1,2,4-trimethyl-5-(2-((1-(5-methyl-1,3,4-oxadiazol-2-yl)ethyl)amino)-2-oxoacetyl)-1H-pyrrole-3-carboxamide], in data set [1], the concentration giving a half-maximal response (EC50) is below 50 nM. In data set [2], this compound showed a CC50 at 7 days above 30000 nM.

As for `Cc1cc(NC(=O)c2c(C)c(C(=O)C(=O)NCc3nc(C(F)(F)F)no3)n(C)c2C)ccc1F` [Example 243, N-(4-fluoro-3-methylphenyl)-1,2,4-trimethyl-5-(2-oxo-2-(((3-(trifluoromethyl)-1,2,4-oxadiazol-5-yl)methyl)amino)acetyl)-1H-pyrrole-3-carboxamide], the EC50 in data set [1] is below 50 nM. This compound registered a CC50 at 7 days in data set [2] of 5000 to 30000 nM.
